Assay results taken from ChEMBL document CHEMBL4052689, “Discovery and optimization of 3-(4-aryl/heteroarylsulfonyl)piperazin-1-yl)-6-(piperidin-1-yl)pyridazines as novel, CNS penetrant pan-muscarinic antagonists” (Bioorg Med Chem Lett, 2017).

Columns and labels:
[1] = target: T1, Muscarinic acetylcholine receptor M4 (Homo sapiens) (UniProt P08173); assay: Antagonist activity at human recombinant muscarinic M4 receptor expressed in CHO cells co-transfected with Gqi5 assessed as acetylcholine-induced response in presence of EC80 acetylcholine by calcium mobilization assay relative to untreated control; type: functional, cell-based; parameters: scale not given: the % may be the effect or the level left
T1 sequence (whole entry): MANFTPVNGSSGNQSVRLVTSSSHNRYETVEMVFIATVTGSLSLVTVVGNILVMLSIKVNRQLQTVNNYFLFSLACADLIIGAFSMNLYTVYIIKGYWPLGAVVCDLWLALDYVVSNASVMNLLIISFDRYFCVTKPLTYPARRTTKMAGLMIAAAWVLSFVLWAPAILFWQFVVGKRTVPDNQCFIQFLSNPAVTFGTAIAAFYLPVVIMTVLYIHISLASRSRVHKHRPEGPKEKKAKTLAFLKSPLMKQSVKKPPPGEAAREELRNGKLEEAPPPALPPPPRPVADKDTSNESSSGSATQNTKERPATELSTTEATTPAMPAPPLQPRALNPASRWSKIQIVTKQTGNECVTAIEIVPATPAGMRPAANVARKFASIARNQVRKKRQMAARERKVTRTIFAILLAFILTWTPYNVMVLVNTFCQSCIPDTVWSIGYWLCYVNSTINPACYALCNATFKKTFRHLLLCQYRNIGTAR

[2] = target: T2, Muscarinic acetylcholine receptor M4 (Homo sapiens, UniProt P08173); assay: Antagonist activity at human recombinant muscarinic M4 receptor expressed in CHO cells co-transfected with Gqi5 in presence of EC80 acetylcholine by calcium mobilization assay; type: functional, cell-based
T2 sequence (P08173 whole entry): T1 sequence (whole entry)

Plasma [3] = assay: Protein binding in human plasma; type: ADME, cell-free
Plasma [4] = assay: Protein binding in rat plasma; type: ADME, cell-free
[5] = target: T2, Muscarinic acetylcholine receptor M4; assay: Antagonist activity at human muscarinic M4 receptor

| SMILES | Activity [1] [%] | IC50 ([2]; read-out: IC50) [nM] | PPB (Plasma [3]) | PPB (Plasma [4]) | IC50 ([2]; read-out: pIC50 (converted)) [nM] | IC50 [5] [nM] |
| --- | --- | --- | --- | --- | --- | --- |
| Cc1noc(C)c1S(=O)(=O)N1CCN(c2ccc(N3CCOC[C@@H]3C)nn2)CC1 | 66 | > 10000 | – | – | – | – |
| C[C@H]1CCCCN1c1ccc(N2CCN(S(=O)(=O)c3ccc4c(c3)OCO4)CC2)nn1 | 9 | 200 | Active | Active | – | – |
| O=S(=O)(c1ccc2c(c1)OCO2)N1CCN(c2ccc(N3CCCCCC3)nn2)CC1 | 20 | 290 | – | – | – | – |
| C[C@H]1CCCCN1c1ccc(N2CCN(S(=O)(=O)c3cccc(Cl)c3)CC2)nn1 | 22 | 760 | Active | Active | 708 | – |
| C[C@H]1CCCCN1c1ccc(N2CCN(S(=O)(=O)C3CCCCC3)CC2)nn1 | 51 | 4020 | Active | Active | – | – |
| CC1(C)CCCN(c2ccc(N3CCN(S(=O)(=O)c4ccccc4Cl)CC3)nn2)C1 | 5 | 940 | – | – | – | – |
| C[C@H]1CCCCN1c1cnc(N2CCN(S(=O)(=O)c3ccc4c(c3)OCO4)CC2)cn1 | – | > 10000 | – | – | – | – |
| C[C@H]1CCCCN1c1ccc(N2CCN(S(=O)(=O)c3ccc4ncccc4c3)CC2)nn1 | 7 | 1170 | Active | Active | 1120 | – |
| C[C@H]1CCCCN1c1ccc(N2CCN(S(=O)(=O)c3ccccc3)CC2)nn1 | 8 | 2570 | Active | Active | – | – |
| COc1ccccc1S(=O)(=O)N1CCN(c2ccc(N3CCCC[C@@H]3C)nn2)CC1 | 11 | 2380 | Active | Active | – | – |
| C[C@H]1COCCN1c1ccc(N2CCN(S(=O)(=O)c3ccccc3Cl)CC2)nn1 | 56 | > 10000 | – | – | – | – |
| O=S(=O)(c1ccc2c(c1)OCO2)N1CCN(c2ccc(N3CCCCC3)nn2)CC1 | 55 | 730 | – | – | 661 | – |
| CC1(C)CCCN(c2ccc(N3CCN(S(=O)(=O)c4ccc5c(c4)OCO5)CC3)nn2)C1 | 14 | 470 | – | – | 457 | – |
| C[C@@H]1CCCCN1c1ccc(N2CCN(S(=O)(=O)c3ccccc3Cl)CC2)nn1 | 12 | 6080 | – | – | 5750 | – |
| C[C@H]1CCCCN1c1ccc(N2CCN(S(=O)(=O)c3ccccc3C(F)(F)F)CC2)nn1 | 4 | 520 | Active | Active | – | – |
| O=S(=O)(c1ccccc1Cl)N1CCN(c2ccc(N3CCCCC3)nn2)CC1 | 12 | 5580 | – | – | 5370 | – |

| SMILES | Activity [1] [%] | IC50 ([2]; read-out: IC50) [nM] | PPB (Plasma [3]) | PPB (Plasma [4]) | IC50 ([2]; read-out: pIC50 (converted)) [nM] | IC50 [5] [nM] |
| --- | --- | --- | --- | --- | --- | --- |
| O=S(=O)(c1ccccc1Cl)N1CCN(c2ccc(N3CCCCCC3)nn2)CC1 | 6 | 1270 | – | – | – | – |
| Cc1noc(C)c1S(=O)(=O)N1CCN(c2ccc(N3CCCCCC3)nn2)CC1 | 8 | 430 | – | – | 407 | – |
| C[C@H]1CCCCN1c1ccc(N2CCN(S(=O)(=O)c3ccc4c(c3)OCO4)CC2)cc1 | – | 1330 | – | – | – | – |
| C[C@H]1COCCN1c1ccc(N2CCN(S(=O)(=O)c3ccc4c(c3)OCO4)CC2)nn1 | 63 | > 10000 | – | – | – | – |
| O=C1CCCCN1c1ccc(N2CCN(S(=O)(=O)c3ccccc3Cl)CC2)nn1 | 51 | > 10000 | – | – | – | – |
| C[C@H]1CCCCN1c1ccc(N2CCN(S(=O)(=O)c3nccn3C)CC2)nn1 | 8 | 1600 | Active | Active | – | – |
| Cc1noc(C)c1S(=O)(=O)N1CCN(c2ccc(N3CCC[C@@H]3C)nn2)CC1 | 10 | 3310 | – | – | – | – |
| C[C@H]1CCCCN1c1ccc(N2CCN(S(=O)(=O)c3ccc(Cl)cc3)CC2)nn1 | 30 | 2340 | Active | Active | 2290 | – |
| C[C@H]1CCCN1c1ccc(N2CCN(S(=O)(=O)c3ccccc3Cl)CC2)nn1 | 9 | 2900 | – | – | – | – |
| C[C@H]1CCCCN1c1ccc(N2CCN(S(=O)(=O)c3ccc4c(c3)OCO4)CC2)nc1 | – | 1350 | – | – | – | – |
| CC1CCCCN1c1ccc(N2CCN(S(=O)(=O)c3ccccc3Cl)CC2)nn1 (racemic) | 9.2 | 530 | – | – | – | 1000 |
| C[C@H]1CCCCN1c1ccc(N2CCN(S(=O)(=O)c3ccc4c(c3)OCO4)CC2)cn1 | – | > 10000 | – | – | – | – |
| Cc1noc(C)c1S(=O)(=O)N1CCN(c2ccc(N3CCCC[C@@H]3C)nn2)CC1 | 6 | 90 | Active | Active | – | – |
| COc1ccc(S(=O)(=O)N2CCN(c3ccc(N4CCCC[C@@H]4C)nn3)CC2)cc1OC | 46 | 2800 | Active | Active | 2630 | – |
| C[C@H]1CCCN1c1ccc(N2CCN(S(=O)(=O)c3ccc4c(c3)OCO4)CC2)nn1 | 14 | 2730 | – | – | 2570 | – |
